Values of other authors in patent publication US20140271927A1, “COMPOSITION AND METHOD FOR TREATING NEUROPATHY” (priority 2013, published 2014).

Conditions: published studies reviewed

## [Cr] [chromium]
  lowering the HbgAlc: 1-2%
